Results published in patent US8691943B2, “Antimicrobial activity of chicken NK-2 peptide against apicomplexan protozoa” (priority 2011, dated 2014).
Where no end group is shown, it is not given here.

Assays:
[1] = tested on: E. acervulina sporozoites; assay: Eimeria acervulina sporozoite viability by trypan blue exclusion; format: cell-based; details: for effect on E. acervulina sporozoites viability: peptide 1 μM to 10 μM, 1 h, 3 h, 6 h at 41° C.
Description: FIG. 1 depicts the cytotoxic activity of chicken NK-lysin peptides for Eimeria acervulina sporozoites. E. acervulina sporozoites (2×10^6/ml) were incubated with control medium (HBSS) and 4 kinds of NK-lysin peptides (50 ug/ml, 100 ug/ml) for 3 h at 41° C. Sporozoite viability was assessed by trypan blue exclusion. Experiments were done in triplicate and considered significant at P<0.01.
For investigating the kinetics of NK-lysin peptides, E. acervulina sporozoites (1.5×10^6/ml) were incubated with NK-lysin-transfected COS7 cell supernatant (1:1 dilution) and various concentrations of melittin, cNK-2 or cNK-4 for 1 h, 3 h and 6 h at 41° C.; sporozoite viability was assessed by trypan blue exclusion. Experiments were performed in triplicate.
E. acervulina sporozoites were obtained by excystation of sporulated oocysts (Dulski and Turner. 1988. Avian Dis. 32:235-239). After breaking the oocyst membrane with 0.5 mm glass beads by Mini-beadbeater (BioSpec Products Inc., Bartlesville, Okla.), sporocysts were purified by isopycnic centrifugation on a Percoll gradient, washed in cold PBS, then treated with excystation solution (0.25% trypsin, 0.014 M taurocholic acid) for 30 min at 41° C. to release sporozoites. Excystation fluid was filtered and the sporozoites were washed 3 times with cold HBSS at 3,000 rpm for 10 min at 4° C. and resuspended to 1.0×10^6/ml in HBSS or 10% RPMI-1640 medium (Sigma) (Hong et al. 2008, supra). The sporozoites were incubated for 1 h, 3 h or 6 h at 41° C. with NK-lysin-transfected COS7 cell supernatants, melittin or synthetic chicken NK-lysin peptides, stained with trypan blue, and viable sporozoites were counted microscopically.
To compare the effect of four kinds of chicken NK-lysin peptides on Eimeria acervulina sporozoites, Eimeria sporozoites were incubated in 50 μg/ml and 100 ug/ml of each peptide for 3 h at 41° C., respectively. The HBSS was used as a control. […] In contrast, other peptides or control didn't kill Eimeria sporozoites (FIG. 1).
We next investigated the cytolytic activity of cNK-2 lytic peptide at increasing concentrations from 1 μM to 10 μM (FIG. 2). Melittin was used as a positive control to gain peptide-induced lysis in the absence of a phospholipid preference (Dempsey, C. E. 1990. Biochim. Biophys. Acta 1031:143-161).

E. maxima = assay: Membrane permeabilization in E. maxima (data not shown); format: cell-based, Eimeria maxima
E. tenella = assay: Membrane permeabilization in E. tenella (data not shown); format: cell-based, Eimeria tenella
C. parvum sporozoites = assay: Cryptosporidum parvum sporozoite viability by two-component fluorescent dye exclusion assay; format: cell-based; details: 0.017, 0.17, 17 and 170 μg/ml; 2 hrs incubation; P<0.01 at 170 μg/ml, P<0.05 at the others
Description: FIG. 4 depicts the effect of NK lysine on Cryptosporidum parvum sporozoites. Freshly prepared C. parvum sporozoites were incubated with different doses of cNK-2 for […] and Cryptosporidia sporozoite viability was measured by a two-component fluorescent dye exclusion assay (LIVE/DEAD Reduced Biohazard Viability/Cytotoxicity Kits, Molecular Probes L-7013). The result is presented as the means plus standard deviations. Statistical analysis was performed by the paired t-test with the Statcel2 software. The level of significance was set at a P value of <0.05.
C. parvum sporozoites were prepared as described with modifications (Riggs and Perryman. 1987. Infect. Immun. 55:2081-2087). The C. parvum sporozoites were incubated with various concentrations of cNK-2 peptides or BSA and viability was assessed after 2 hrs of incubation. Viability of the sporozoites was measured by a two-component fluorescent dye exclusion assay (LIVE/DEAD Reduced Biohazard Viability/Cytotoxicity Kits, Molecular Probes L-7013). Results are presented as the means plus standard deviations. […] Statistical analysis was performed with the Statcel2 software.

E. coli strain BMH71-18 = assay: Bactericidal activity, broth microdilution assay (OD600); format: cell-based; details: peptides 0-40 μg/ml, 18 h
Description: Ampicillin (0-20 μg/ml), chicken NK-lysin peptides (0-40 μg/ml), or LB broth alone were added to cultures of the bacteria and incubated for 18 h at […]. Bacterial growth was determined by measuring OD600. X axis: Ampicillin concentrations.
To evaluate the bactericidal activity of NK-lysin peptides, the minimum inhibitory concentration (MIC) values of the purified recombinant protein against E. coil strain BMH71-18 were determined using a standardized broth microdilution assay. Ampicillin MIC values against the bacteria were determined in parallel as positive controls. The assays were performed in accordance with Clinical and Laboratory Standards Institute (CLSI; Formerly National Committee for Clinical Laboratory Standards [NCCLS]) guidelines (NCCLS. 1999. In: Methods for Determining Bacterial Activity of Antimicrobial Agents, NCCLC, Wayne, Pa.; NCCLS. 2002. In: Performance Standards for Antimicrobial Disk and Dilution Susceptibility Tests for Bacteria isolated from Animals; Approved Standard, 2nd ed. NCCLS, Wayne, Pa.). […] The wells were incubated for 18 h at 37° C. with ambient air circulation and without shaking, and the optical density (OD) of each well was measured on a Synergy HT™ multi-modal plate reader (Bio-Tec Instruments, Winooski, Vt.) at 600 nm. Background values, derived from non-inoculated wells containing broth alone, were subtracted from all readings.

E. acervulina oocysts = assay: In ovo plus intraperitoneal administration, protection against live oral E. acervulina challenge; format: in vivo, chickens
Description: FIGS. 6A and 6B depict the effect of cNK-2 treatment on body weight gains of birds infected with E. acervulina. At 1 day post-hatch, the chickens were infected with 500 sporulated oocysts of E. acervulina. Body weights were assessed at 5 days (FIG. 6A) and 10 days (FIG. 6B) post-infection. […] Each bar represents the mean±SEM values.
FIG. 7 depicts the effect of cNK-2 treatment on fecal oocyst shedding after oral challenge infection with live E. acervulina. At 1 day post-hatch, chickens were infected with 500 sporulated oocysts of E. acervulina and fecal oocysts were measured starting from day 5 to day 10 post-infection. Each bar represents the mean±SEM values.
For protection studies, broiler eggs at the 18-day-old embryo stage were allocated into 4 groups of 12 eggs each. An in ovo injector was used to inoculate eggs. The two control groups (Groups 1 and 2) received no NK lysin peptide and were mock inoculated with Hanks Balanced Salt Solution (HBSS) only. Two groups were inoculated with an in ova injection of cNK-2 peptide (ARS005-1; RD-27) at doses of 1 μg/embryo (Group 3) or 5 μg/embryo (Group 4). Three days later, birds were hatched and moved to brooder petersime units. Birds of Groups 3 and 4 were given a second injection with cNK-2 peptide at doses of 1 μg/bird and 5 μg/bird, respectively, using an intraperitoneal route as shown in Table 2. Birds that had been injected in ova with HBSS alone were not given an additional intraperitoneal injection (Table 2).
At one day post hatch, the birds from Groups 2, 3 and 4 were challenged orally with 500 sporulated, live Eimeria acervulina oocysts. Body weights were measured at 1 day post hatch, i.e., on the day of challenge (coccidia infection), at 5 days (FIG. 6A) and at 10 days (FIG. 6B) post-infection.
The effect of cNK-2 peptide on fecal oocyst shedding was also determined. […] Oocysts were collected between 5 and 10 days post infection and the number were counted using an established method (FIG. 7).

N. caninum tachyzoites = assay: Neospora caninum tachyzoite viability by trypan blue exclusion; format: cell-based; details: 41° C.; for tachyzoites killed: 1 h incubation; for tachyzoites killing: 3 h incubation
Description: FIG. 3 depicts the dose- and time-dependant effects of chicken cNK-2 peptide on Neospora caninum tachyzoites. For investigating kinetics of NK-lysin peptides, N. caninum tachyzoites (1.0×10^7/ml) were incubated with medium (control) and two different concentrations (5 uM and 10 uM) of cNK-2 for 1 h and 3 h at 41° C.; tachyzoite viability was assessed by trypan blue exclusion. Experiments were performed in triplicate. RPMI medium alone served as the negative control. Data were expressed as means±SEM. Differences were considered statistically significant at P<0.05 by the Duncan's multiple range test.
N. caninum tachyzoites were prepared as described with modifications (Tuo et al. 2005. Infect. Immun. 73:5093-5100). N. caninum (NC-1 isolate) tachyzoites were cultured on bovine monocytes (Lindsay and Dubey. 1989. J. Parasitol. 75:163-165) in RPMI 1640 medium supplemented with 2% fetal calf serum and 50 μg/ml gentamicin at 37° C. in a 95% air and 5% CO2 atmosphere. N. caninum tachyzoite-infected host cells were collected, passed through 20- and 27-gauge needles, and pelleted by centrifugation at 1,000×g for 20 min at 4° C. Tachyzoites were then purified by centrifugation over a 40% Percoll gradient at 2,000×g for 30 min at 4° C. The tachyzoite pellet was then resuspended in PBS (pH 7.4) and washed three times. Finally tachyzoites were resuspended to 5.0×10^6/ml in 10% RPMI-1640 medium (Sigma). The tachyzoites were incubated for 1 h or 3 h at 41° C. with synthetic chicken NK-lysin peptides (5 μM and 10 μM), stained with trypan blue, and viable tachyzoites were counted microscopically.

Molecule	killing of E. acervulina sporozoites (viability, trypan blue) ([1]; 50 μg/ml or 100 μg/ml peptide, 3 h at 41° C., HBSS control, P<0.01)	effect on E. acervulina sporozoites viability [1]	membrane permeabilization (E. maxima)	membrane permeabilization (E. tenella)	viability of C. parvum sporozoites (C. parvum sporozoites)	antimicrobial activity against bacterial growth (E. coli strain BMH71-18)	body weights of infected birds compared with HBSS control birds (E. acervulina oocysts; 1 μg and 5 μg in ovo then intraperitoneal, 5 and 10 days post-infection, 500 oocysts, P<0.05)	fecal oocyst shedding (E. acervulina oocysts; dose of at least 5 μg, oocysts collected 5 to 10 days post infection, P<0.05)	protective effect against live oral challenge infection (E. acervulina oocysts; in ovo injections followed by intraperitoneal injections, 500 E. acervulina oocysts)	tachyzoites killed (N. caninum tachyzoites; 5 uM)	tachyzoites killing (N. caninum tachyzoites; 5 uM)	tachyzoites killed (N. caninum tachyzoites; 10 uM)	tachyzoites killing (N. caninum tachyzoites; 10 uM)	cytolytic effect on E. acervulina sporozoites ([1]; melittin positive control at 2.5 μM and 5 μM)
RRQRSICKQLLKKLRQQLSDALQNNDD-NH2 [cNK-2]	significantly killed	time- and dose-dependent effect	caused membrane permeabilization	caused membrane permeabilization	significant decreases in the viability	Neither chicken NK-lysin nor the NK-lysin peptides, cNK-2 and cNK-4, demonstrated antimicrobial activity	significantly higher body weights	significant reduction of fecal oocyst shedding	significant protective effect	about 46%	71%	~60%	86%	
CC[C@H](C)[C@H](NC(=O)CN)C(=O)NCC(=O)N[C@@H](C)C(=O)N[C@H](C(=O)N[C@@H](CC(C)C)C(=O)N[C@@H](CCCCN)C(=O)N[C@H](C(=O)N[C@@H](CC(C)C)C(=O)N[C@H](C(=O)N[C@H](C(=O)NCC(=O)N[C@@H](CC(C)C)C(=O)N1CCC[C@H]1C(=O)N[C@@H](C)C(=O)N[C@@H](CC(C)C)C(=O)N[C@H](C(=O)N[C@@H](CO)C(=O)N[C@@H](Cc1c[nH]c2ccccc12)C(=O)N[C@H](C(=O)N[C@@H](CCCCN)C(=O)N[C@@H](CCCNC(=N)N)C(=O)N[C@@H](CCCCN)C(=O)N[C@@H](CCCNC(=N)N)C(=O)N[C@@H](CCC(N)=O)C(=O)N[C@@H](CCC(N)=O)C(N)=O)[C@@H](C)CC)[C@@H](C)CC)[C@@H](C)O)[C@@H](C)O)C(C)C)C(C)C [Melittin, reference compound]														total disruption of the cellular membrane
cNK-4: synthetic chicken NK-lysin peptide (88-117), AINNALNKVCSTGRRQRSICKQLLKKLRQQ, SEQ ID NO. 4 (listed as Gallus gallus)		no effect				Neither chicken NK-lysin nor the NK-lysin peptides, cNK-2 and cNK-4, demonstrated antimicrobial activity								
